Experimental data from US6184230A, “Anti-helicobacter pylori pharmaceutical composition” (Yamanouchi Pharmaceutical Co., Ltd., priority 1997, dated 2001).
Values after ≈ are worked out from the molar mass of the structure shown.

How the values were obtained:
Format in all cases: cell-based
[1] = test system: Peptostreptococcus productus CAYA 12-2; experiment: In vitro test on anaerobes (MIC), Example 4; conditions: Blautia producta, CAYA122, 18 h
Experimental: (§1) An in vitro test on anaerobes was carried out in the following manner.
(§2) Preparation of Antibacterial Substance-containing Agar Plate
(§3) The substance to be evaluated was dissolved in 100% dimethyl sulfoxide (DMSO) and diluted by 2-fold serial dilution. Each of the dilution solutions was put into a sterilized round Petri dish and mixed with 10 ml of GAM agar medium which had been sterilized and kept at 50° C., and the mixture was solidified. Final concentration of DMSO becomes 1% or less.
(§4) Preparation of Inoculation Material and Judgment of Test Results
(§5) Each strain to be tested was cultured overnight at 37° C. in GAM broth using an anaerobic culturing apparatus whose inside atmosphere had been replaced with a mixed gas system of 80% N2, 10% CO2 and 10% H2, and the resulting broth was diluted to a density of about 10^6 cells/1 ml using the same GAM broth. About 5 μl portion of the dilution was inoculated onto the surface of the drug-containing agar medium using a microplanter. The thus inoculated agar plate was cultured at 37° C. for 18 hours using the anaerobic culturing apparatus. After completion of the culturing, the agar plate was observed, and the minimum drug concentration by which cell growth was not observed was defined as MIC.

[2] = test system: Bacteroides fragiris GAI 5562; experiment: In vitro test on anaerobes (MIC), Example 4; conditions: GAI5562, 18 h
Experimental: as §1, §2, §3, §4, §5

[3] = test system: Bifidobacterium bifidum CAYA 21-1; experiment: In vitro test on anaerobes (MIC), Example 4; conditions: CAYA211, 18 h
Experimental: as §1, §2, §3, §4, §5

[4] = test system: Pseudomonas aeruginosa NCTC 10490; experiment: In vitro test on facultative anaerobes and aerobes (MIC), Example 3; conditions: NCTC10490; Pseudomonas aeruginosa NCTC 10490, Muller-Hinton agar, 37° C., 18 hours
Experimental: (§6) An in vitro test on facultative anaerobes and aerobes was carried out in the following manner.
as §2
as §3, with “Muller-Hinton” for “GAM”
as §4
(§7) Each strain to be tested was cultured overnight in an incubator set at 37° C. using Muller-Hinton broth, and the resulting broth was diluted to a density of about 10^6 cells/1 ml using Muller-Hinton broth. About 5 μl portion of the dilution was inoculated onto the surface of the drug-containing agar medium using a microplanter. The thus inoculated agar plate was cultured at 37° C. for 18 hours in an incubator. After completion of the culturing, the agar plate was observed, and the minimum drug concentration by which cell growth was not observed was defined as MIC.

[5] = test system: Escherichia coli 0-1; experiment: as above; conditions: 01; Escherichia coli 0-1, Muller-Hinton agar, 37° C., 18 hours
Experimental: as §6, §2
as §3, with “Muller-Hinton” for “GAM”
as §4, §7

[6] = test system: Staphylococcus aureus FDA 209P; experiment: as above; conditions: FDA209P, Muller-Hinton agar, 37° C., 18 hours
Experimental: as §6, §2
as §3, with “Muller-Hinton” for “GAM”
as §4, §7

[7] = test system: Helicobacter pylori ATCC 43504; experiment: Measurement of antibacterial activity (in vitro, MIC on Brucella agar), Example 2; conditions: ATCC43504, Brucella agar medium (0.1% β-cyclodextrin), 37° C., 3 days (72 hours), N2 80%, CO2 15%, O2 5%
Experimental: An in vitro test of the aforementioned substance was carried out in the following manner.
Measurement of antibacterial activity
as §2
as §3, with “Brucella” for “GAM”, “medium (0.1% β-cyclodextrin)” for “medium”
as §4
A Helicobacter pylori strain, for example Helicobacter pylori ATCC 43504, was cultured at 37° C. for 3 days in a multi gas incubator (N2 : 80%, CO2 : 15%, O2: 5 %) using Brucella agar medium (containing 5% calf serum albumin) and then prepared into a cell suspension of about 10^8 cells/1 ml using Brucella broth based on its turbidity. The cell suspension was diluted 100 times with Brucella broth, and about 5 μl portion of the dilution was inoculated onto the surface of the drug-containing agar medium using a microplanter. The thus inoculated agar plate was cultured at 37° C. for 3 days (72 hours) in the aforementioned multi gas incubator. […]

[8] = test system: Helicobacter pylori; experiment: Anti-Helicobacter pylori activity (general statement)
[9] = test system: other bacteria; experiment: Selectivity, influence upon other bacteria (general statement)

Row | Compound | MIC [1] [µg/mL] | MIC [2] [µg/mL] | MIC [3] [µg/mL] | MIC [4] [µg/mL] | MIC [5] [µg/mL] | MIC [6] [µg/mL] | MIC [7] [µg/mL] | anti-Helicobacter pylori activity [8] | influences upon other bacteria [9] | selectivity [9]
1 | CCCCCC/C=C/Cc1c(C)c(=O)c2ccccc2n1O [1-hydroxy-2-(2-trans-nonenyl)-3-methyl-4(1H)-quinolone] | > 25 | > 25 | > 25 | ≥ 12.5 | ≥ 12.5 | ≥ 12.5 | 0.025 (≈ 0.0835 µM) |  |  | 
2 | CCCCCC/C=C/Cc1c(C)c(=O)c2ccccc2n1O [YL-02729S] |  |  |  |  |  |  |  | excellent anti-Helicobacter pylori activity | does not exert influences upon other bacteria | high selectivity
